According to patent US12617777B2, “GPR84 antagonists and uses thereof” (Liminal BioSciences Limited, priority 2021, dated 2026):

Columns and labels:
human GPR84 receptor = target: T1, human GPR84 receptor (Homo sapiens, UniProt Q9NQS5); test: Gαi biosensor BRET assay in HEK293 cells (antagonism of ZQ-16); format: cell-based; settings: for inhibition at 10 µM: HEK293, single concentration 10 μM (designated F); for IC50: HEK293 cells, antagonism of 200 nmol/L ZQ-16; for inhibition at 2 µM: HEK293, single concentration 2 μM (designated A)
T1 construct: host or cells: HEK293, transient transfection
In short: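 Antagonist mode: test compound 5 min at 37° C, followed by ZQ-16 agonist (200 nmol/L, 5 min, room temperature), in HEK293 cells transfected with GPR84 plus Rluc8-tagged Gαi2, GFP10-Gγ2 and Gβ1. Readout as GFP10/Rluc8 emission ratio after 5 μmol/L coelenterazine 400A, net of Rluc8-only and vehicle signal.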

neutrophils = test: Neutrophil migration assay (embelin as chemotactic agent, ATPlite readout); format: cell-based; settings: for IC50: Neutrophil, human neutrophils, embelin as chemotactic agent, read-out: Human Neutrophil migration inhibition IC50; for Human Neutrophil migration inhibition - fold potency to Control Compound: normalized to GPR84 antagonist Control Compound (average IC50 131 nM)
Experimental: Neutrophil migration assay. After isolation, neutrophils were resuspended in chemotaxis buffer (DMEM supplemented with 10 mM HEPES) at a concentration of 8.9×10^6 cells/ml. In a 96-well plate, 20 μl of compound solution in chemotaxis buffer is added to 180 μl of cell suspension. After incubation at 37° C. for 30 minutes, 75 μl of cell suspension is transferred in the upper chamber of a 5 μm pore size Corning HTS transwell. 235 μl of chemotaxis buffer containing the chemotactic agent (embelin) is added to the lower chamber of the transwell. After a 60-minute incubation time at 37° C. in 5%0 C02, the upper chamber of the transwell is removed and the plate is centrifuged at 1500 rpm for 6 minutes. Supermatant is removed and cells resuspended in 100 ul of PBS. ATP content was assessed using ATPlite Luminescence Assay System® according to manufacturer instructions (Perkin Elmer, Buckinghamshire, UK). Briefly, 50 μl of ATPlite buffer and 50 μl of lysis solution is added to the lower chamber of the Transwells. After incubation at room temperature, in the dark with constant agitation for 5 minutes, 150 μl of cell lysate is transferred in a 96 wells white plate and incubated for 10 minutes in the dark. Luminescence is read on a TECAN plate reader, Infinite M1000 (Tecan, Morrisville, NC).
The compound numbers correspond to the compound numbers in Table 1. […] Normalization of the results takes the donor's variation into account.

T1 sequence (Q9NQS5 whole entry): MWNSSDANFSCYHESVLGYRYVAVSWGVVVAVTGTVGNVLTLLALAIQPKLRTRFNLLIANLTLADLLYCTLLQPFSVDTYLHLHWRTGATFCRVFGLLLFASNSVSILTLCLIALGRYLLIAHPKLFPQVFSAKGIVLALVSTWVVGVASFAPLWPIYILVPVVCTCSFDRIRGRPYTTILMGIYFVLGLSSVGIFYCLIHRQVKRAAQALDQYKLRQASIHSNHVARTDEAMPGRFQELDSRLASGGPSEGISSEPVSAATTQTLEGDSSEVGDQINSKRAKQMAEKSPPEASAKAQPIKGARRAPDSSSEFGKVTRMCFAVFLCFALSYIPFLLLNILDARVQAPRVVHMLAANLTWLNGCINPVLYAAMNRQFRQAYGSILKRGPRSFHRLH

Structure (SMILES) | inhibition at 10 µM (human GPR84 receptor) [%] | IC50 (human GPR84 receptor) [nM] | IC50 (neutrophils) [nM] | Human Neutrophil migration inhibition - fold potency to Control Compound (neutrophils) | inhibition at 6.25 µM (human GPR84 receptor; HEK293, single concentration 6.25 μM (designated E)) [%] | inhibition at 2 µM (human GPR84 receptor) [%] | inhibition at 6 µM (human GPR84 receptor; HEK293, single concentration 6.00 μM (designated D°)) [%] | inhibition at 1 µM (human GPR84 receptor; HEK293, single concentration 1 μM (designated A°)) [%]
CCc1cc(C#CCNC(=O)OC(C)(C)C)ccc1-c1cn(CC2CCCCO2)nn1 (stereo not drawn) [Compound I-572] | > 75 | 300 to 1000 | ≤ 300 | A (IC50 of >1.0-fold relative to Control Compound) |  |  |  | 
Cc1cc(N2CCN(Cc3ccccn3)CC2)ccc1-c1cn(C[C@@H]2CCC(F)(F)CO2)nn1 (stereo in doubt) [Compound I-636] | > 75 | ≤ 300 | ≤ 300 | A (IC50 of >1.0-fold relative to Control Compound) |  |  |  | 
Cc1cc(C#CC2CC2)ccc1-c1cn(CC2CCCCO2)nn1 (stereo not drawn) [Compound I-34] |  | > 3000 | 1000 to 3000 | C (IC50≤0.5-fold relative to Control Compound) | 50 to 75 |  |  | 
Cc1cc(N2CC(C)(N(C)Cc3ccccn3)C2)ccc1-c1cn(CC2CCCCO2)nn1 (stereo not drawn) [Compound I-451] | > 75 | 300 to 1000 | ≤ 300 | A (IC50 of >1.0-fold relative to Control Compound) |  |  |  | 
CC(C)c1cc(C#CCN2CC(C)(C)C2)cnc1-c1cn(CC2CCCCO2)nn1 (stereo not drawn) [Compound I-462] | > 75 | 1000 to 3000 | ≤ 300 | C (IC50≤0.5-fold relative to Control Compound) |  |  |  | 
Cc1cc(N2CCN(Cc3ccccn3)CC2)ccc1-c1cn(C[C@H]2CCC(F)(F)CO2)nn1 (stereo in doubt) [Compound I-635] | 50 to 75 | ≤ 300 | 300 to 1000 | C (IC50≤0.5-fold relative to Control Compound) |  |  |  | 
CCc1cc(N2CCN(Cc3ccccn3)CC2)cnc1-c1cn(C[C@H]2CCCCO2)nn1 [Compound I-459] | > 75 | 1000 to 3000 | ≤ 300 | C (IC50≤0.5-fold relative to Control Compound) |  |  |  | 
Cc1cc(N2CC(C)(CNc3ccccc3)C2)ccc1-c1cn(CC2CCCCO2)nn1 (stereo not drawn) [Compound I-411] | > 75 | ≤ 300 | 300 to 1000 | B (IC50 of >0.5-≤1.0-fold relative to Control Compound) |  |  |  | 
Cc1cc(C#CC2CC2)ccc1-c1cn(CC2CCC(C)(C)CO2)nn1 (stereo not drawn) [Compound I-455] | > 75 | 1000 to 3000 | ≤ 300 | B (IC50 of >0.5-≤1.0-fold relative to Control Compound) |  |  |  | 
Cc1cc(C#CCN2CC(C)(C)C2)cnc1-c1cn(CC2OCC(C)(C)CO2)nn1 [Compound I-596] | > 75 | 300 to 1000 | ≤ 300 | A (IC50 of >1.0-fold relative to Control Compound) |  |  |  | 
CO[C@H](c1cn(C[C@@H]2CCCCO2)nn1)c1cc(C#CC2CC2)ccc1C [Compound I-512] |  | 300 to 1000 | ≤ 300 | C (IC50≤0.5-fold relative to Control Compound) |  | > 75 |  | 
Cc1cc(C#CCN(C)CC2CC2)ccc1-c1cn(CC2CCCCO2)nn1 (stereo not drawn) [Compound I-121] | > 75 | 300 to 1000 | 300 to 1000 | C (IC50≤0.5-fold relative to Control Compound) |  |  |  | 
Cc1cc(N2CCN(Cc3ccccn3)CC2)ccc1-c1cn(C[C@H]2CCCCO2)nn1 [Compound I-423] |  | 300 to 1000 | ≤ 300 | A (IC50 of >1.0-fold relative to Control Compound) |  |  | > 75 | 
CN(C)c1cc(C#CCNCc2ccccc2)ccc1-c1cn(CC2CCCCO2)nn1 (stereo not drawn) [Compound I-188] |  | > 3000 | ≤ 300 | A (IC50 of >1.0-fold relative to Control Compound) |  |  |  | 
Cc1cc(N2CC3(CCCN3Cc3ccccc3)C2)ccc1-c1cn(CC2CCCCO2)nn1 (stereo not drawn) [Compound I-149] |  |  | 1000 to 3000 | C (IC50≤0.5-fold relative to Control Compound) |  | 25 to 50 |  | 
Cc1cc(N2CCN(Cc3ccccn3)CC2)ccc1-c1cn(CC2CCC(C)(C)CO2)nn1 (stereo not drawn) [Compound I-562] | > 75 | ≤ 300 | ≤ 300 | A (IC50 of >1.0-fold relative to Control Compound) |  |  |  | 

Structure (SMILES) | inhibition at 10 µM (human GPR84 receptor) [%] | IC50 (human GPR84 receptor) [nM] | IC50 (neutrophils) [nM] | Human Neutrophil migration inhibition - fold potency to Control Compound (neutrophils) | inhibition at 6.25 µM (human GPR84 receptor; HEK293, single concentration 6.25 μM (designated E)) [%] | inhibition at 2 µM (human GPR84 receptor) [%] | inhibition at 6 µM (human GPR84 receptor; HEK293, single concentration 6.00 μM (designated D°)) [%] | inhibition at 1 µM (human GPR84 receptor; HEK293, single concentration 1 μM (designated A°)) [%]
Cc1cc(N2CC(C)(OCc3ccccn3)C2)ccc1-c1cn(CC2CCCCO2)nn1 (stereo not drawn) [Compound I-452] | > 75 | 300 to 1000 | ≤ 300 | A (IC50 of >1.0-fold relative to Control Compound) |  |  |  | 
Cc1cc(N2CCN(Cc3ccccn3)CC2)ccc1-c1cn(CC2CC(C)(C)CO2)nn1 (stereo not drawn) [Compound I-530] | > 75 | ≤ 300 | ≤ 300 | A (IC50 of >1.0-fold relative to Control Compound) |  |  |  | 
CN(C)c1cc(N2CC(C)(CO)C2)ccc1-c1cn(C[C@@H]2CC(C)(C)CO2)nn1 (stereo in doubt) [Compound I-589] |  | ≤ 300 | ≤ 300 | A (IC50 of >1.0-fold relative to Control Compound) |  |  |  | > 75
Cc1cc(C#CCN(C)CC2(C(F)(F)F)CC2)ccc1-c1cn(CC2CCCCO2)nn1 (stereo not drawn) [Compound I-138] | 50 to 75 | 1000 to 3000 | 1000 to 3000 | C (IC50≤0.5-fold relative to Control Compound) |  |  |  | 
FC(F)(F)c1cc(C#CC2CC2)ccc1-c1cn(CC2CCCCO2)nn1 (stereo not drawn) [Compound I-81] | 50 to 75 | > 3000 | 300 to 1000 | C (IC50≤0.5-fold relative to Control Compound) |  |  |  | 
Cc1ccc(C#CC2CC2)cc1C(OC1CC1)c1cn(CC2OCC(C)(C)CO2)nn1 (stereo not drawn) [Compound I-644] |  | 300 to 1000 | ≤ 300 | A (IC50 of >1.0-fold relative to Control Compound) |  | > 75 |  | 
CN(C)c1cc(N2CC(C)(CO)C2)ccc1-c1cn(CC2CC(C)(C)CO2)nn1 (stereo not drawn) [Compound I-499] | > 75 | 300 to 1000 | ≤ 300 | A (IC50 of >1.0-fold relative to Control Compound) |  |  |  | 
CCc1cc(C#CCNc2cccnc2)cnc1-c1cn(C[C@H]2CCCCO2)nn1 [Compound I-535] | > 75 | ≤ 300 | ≤ 300 | B (IC50 of >0.5-≤1.0-fold relative to Control Compound) |  |  |  | 
CN(C)c1cc(C#CC2CC2)ccc1-c1cn(CC2CCCCO2)nn1 (stereo not drawn) [Compound I-87] |  | 1000 to 3000 | 1000 to 3000 | C (IC50≤0.5-fold relative to Control Compound) |  |  |  | 
Cc1cc(C#CC2(O)CCCCC2)ccc1-c1cn(CC2CCCCO2)nn1 (stereo not drawn) [Compound I-94] | > 75 | 1000 to 3000 | 1000 to 3000 | C (IC50≤0.5-fold relative to Control Compound) |  |  |  | 
CCc1cc(N2CC(C)(C)C2)ccc1-c1cn(CC2OCC(C)(C)CO2)nn1 [Compound I-618] | > 75 | ≤ 300 | ≤ 300 | A (IC50 of >1.0-fold relative to Control Compound) |  |  |  | 
Cc1cc(C#CCNC(=O)OC(C)(C)C)ccc1-c1cn(CC2CCCCO2)nn1 (stereo not drawn) [Compound I-177] | 50 to 75 | 1000 to 3000 | ≤ 300 | A (IC50 of >1.0-fold relative to Control Compound) |  |  |  | 
CC(C)Oc1cc(C#CC2CC2)cnc1-c1cn(CC2CCCCO2)nn1 (stereo not drawn) [Compound I-478] | > 75 | ≤ 300 | ≤ 300 | B (IC50 of >0.5-≤1.0-fold relative to Control Compound) |  |  |  | 
CC(C)Oc1cc(C#CC2CC2)ccc1-c1cn(CC2CCCCO2)nn1 (stereo not drawn) [Compound I-187] |  | > 3000 | ≤ 300 | B (IC50 of >0.5-≤1.0-fold relative to Control Compound) |  |  |  | 
Cc1cc(C#CCNc2ccccc2)ccc1-c1cn(C[C@H]2CCCCO2)nn1 [Compound I-166] | > 75 | 300 to 1000 | ≤ 300 | A (IC50 of >1.0-fold relative to Control Compound) |  |  |  | 
